Active and inactive are the calls of the source. No cut-off for these calls is given here.
Columns and labels:
[1] = test system: Mycobacterium tuberculosis variant bovis BCG; assay: Inhibition of Mycobacterium bovis BCG QcrB harboring CydAB deletion mutant assessed as decrease in ATP level at 10 uM incubated for 20 hrs by Bactiter-Glo microbial cell viability assay
[2] = test system: Mycobacterium tuberculosis variant bovis BCG; assay: Inhibition of Mycobacterium bovis BCG QcrB assessed as decrease in ATP level at 10 uM incubated for 20 hrs by Bactiter-Glo microbial cell viability assay
[3] = test system: Mycobacterium tuberculosis variant bovis BCG; assay: Inhibition of Mycobacterium bovis BCG QcrB harboring CydAB deletion mutant assessed as decrease in ATP level at 0.01 to 10 uM incubated for 20 hrs by Bactiter-Glo microbial cell viability assay; conditions: dose 0.01-10 µM
[4] = test system: Mycobacterium tuberculosis variant bovis BCG; assay: Inhibition of Mycobacterium bovis BCG QcrB assessed as decrease in ATP level at 0.01 to 10 uM incubated for 20 hrs by Bactiter-Glo microbial cell viability assay; conditions: dose 0.01-10 µM

Compound: O=C(NCc1ccc(N2CCC(c3ccc(OC(F)(F)F)cc3)CC2)cc1)c1nc2cc(C(F)(F)F)cc([N+](=O)[O-])c2s1
- inhibition [1]: Active
- inhibition [2]: Active

Compound: CCc1nc2ccc(Cl)cn2c1C(=O)NCc1ccc(N2CCC(c3ccc(OC(F)(F)F)cc3)CC2)cc1 [TELACEBEC]
- inhibition [3]: Active
- inhibition [4]: Active

Compound: COc1nc2ccc(Br)cc2cc1[C@@H](c1ccccc1)[C@@](O)(CCN(C)C)c1cccc2ccccc12
- inhibition [3]: Active
- inhibition [4]: Active

Compound: O=C(NCc1ccc(N2CCC(c3ccc(OC(F)(F)F)cc3)CC2)cc1)c1sc2c([N+](=O)[O-])cc(C(F)(F)F)cc2[n+]1[O-]
- inhibition [1]: Active
- inhibition [2]: Active

Source: ChEMBL document CHEMBL4673200, “Hydride-induced Meisenheimer complex formation reflects activity of nitro aromatic anti-tuberculosis compounds” (RSC Med Chem, 2021)
